ChEMBL document CHEMBL1147332, “Screening of marine invertebrates for the presence of ergosterol-sensitive antifungal compounds” (1993)
Active and inactive are the calls of the source. The calls are words filed in the database; no cut-off is given here.

How the values were obtained:
Candida albicans [1] = assay: Antifungal activity against Candida albicans after 16 to 19 hrs by disk diffusion assay; type: functional, organism-based
Candida albicans [2] = assay: Antifungal activity against Candida albicans at <= 1 ug after 16 to 19 hrs by disk diffusion assay; type: functional, organism-based
Candida albicans [3] = assay: Antifungal activity against Candida albicans after 16 to 19 hrs by disk diffusion assay in presence of 100 ppm ergosterol; type: functional, organism-based
Candida albicans [4] = assay: Antifungal activity against Candida albicans at 2 ug after 16 to 19 hrs by disk diffusion assay in presence of 20 ppm ergosterol; type: functional
Candida albicans [5] = assay: Antifungal activity against Candida albicans at 1 ug after 16 to 19 hrs by disk diffusion assay in presence of increasing concentration of ergosterol; type: functional, organism-based
Candida albicans [6] = assay: Antifungal activity against Candida albicans at 5 ug after 16 to 19 hrs by disk diffusion assay in presence of 120 ppm ergosterol; type: functional

| SMILES | Activity (Candida albicans [1]) | Activity (Candida albicans [2]) | further results |
| --- | --- | --- | --- |
| CO[C@H]([C@H](C)/C=C/N(C)C=O)[C@@H](C)C(=O)CC[C@H](C)[C@H](C[C@@H]1OC(=O)C[C@@H](OC(N)=O)C[C@H](C)C[C@H](O)[C@H](C)[C@@H](OC)c2coc(n2)-c2coc(n2)-c2coc(n2)/C=C/C[C@H](OC)[C@H]1C)OC | inactive | Active |  |
| Clc1ccc(COC(Cn2ccnc2)c2ccc(Cl)cc2Cl)c(Cl)c1 (stereo not drawn) |  |  | Activity (Candida albicans [3]): Active |
| C[C@@H]1[C@H](O)[C@@H](C)/C=C/C=C/C=C/C=C/C=C/C=C/C=C/[C@H](O[C@@H]2O[C@H](C)[C@@H](O)[C@H](N)[C@@H]2O)C[C@@H]2O[C@](O)(C[C@@H](O)C[C@@H](O)[C@H](O)CC[C@@H](O)C[C@@H](O)CC(=O)O[C@H]1C)C[C@H](O)[C@H]2C(=O)O [AMPHOTERICIN B] |  |  | Activity (Candida albicans [4]): 50%; Activity (Candida albicans [5]): Active |
| C/C1=C\[C@H](C)C[C@H](C)OC(=O)C[C@H](c2ccc(O)cc2)NC(=O)[C@@H](Cc2c(Br)[nH]c3ccccc23)N(C)C(=O)[C@H](C)NC(=O)[C@@H](C)C1 [JASPAMIDE] | inactive | Active | Activity (Candida albicans [6]): 50% |
